Key:
[1] = target: rat brain benzodiazepine receptors (3H-diazepam receptor); experiment: benzodiazepine receptor binding test in vitro (inhibition of specific 3H-diazepam binding to rat brain membranes); conditions: Ki = IC50/(1+C/KD), read-out: Ki (inhibitor constant, 3H-diazepam binding)
Excerpt: The pharmacological properties of the compounds of the present invention were first investigated by submitting them to the benzodiazepine receptor binding test in vitro.

[2] = test system: male rats of the CFHB Wistar strain; experiment: conditioned avoidance test (secondary conditioned response, pole climbing); format: in vivo, rat (CFHB Wistar); conditions: intraperitoneally, doses of between about 1/30 and 1/10 of the corresponding LD50s
Description: (§1) Some of the compounds of the above list were also tested in vivo in those pharmacological tests thought to be predictive of anxiolytic activity in man. Classical pharmacological tests employed to confirm the antianxiety activity were the conditioned avoidance test and the antipentylenetetrazole test in mice. The conditioned avoidance test was carried out according to the method described by Cook and Weidley in Ann. N.Y. Acad. Sci. 1957, 66, 740, and subsequently modified by Maffii (J. Pharm. and Pharmacol., 1959, 11, 129-139). In this procedure a rat is placed in a chamber with a grid floor through which electric shocks may be delivered. This chamber is also equipped with a buzzer and with a wooden pole, electrically isolated, which is suspended from the top of the experimental chamber.
The animal soon learns to escape the shock by climbing the pole (unconditioned response--U.R.) and by climbing the pole in response to the buzzer alone (conditioned avoidance response--CR). After further exposure to the situation, the rat becomes conditioned and climbs the pole before the buzzer is activated; when this response becomes stable, the rat is considered to have developed a secondary conditioned response (CR2).
(§2) The drug to be studied is then administered to these long-trained animals and its deconditioning effect is evaluated. […] Moreover, the activity of some of the compounds of the present invention has been tested in the antipentylenetetrazole test in mice. The experiments have been carried out by following essentially the methodology described by Berger in J. Pharm. Exptl. Ther. 104, 468, (1952). More particularly, a fatal dose of pentylentetrazole (140 mg/kg s.c.) was administered to groups of ten mice each, 30 minutes after a selected dose of the potential anticonvulsant compound. […] Since the animals of the control group died within 30 minutes, the effectiveness of the compounds tested at each dose tested was expressed as the number of animals of the group which were still alive two hours after the administration of pentylenetetrazole, out of the total number of animals of the group (10).

[3] = LD50 (acute toxicity, i.p.); conditions: in vivo, ip
[4] = test system: mice (pentylenetetrazole-induced death); experiment: antipentylenetetrazole test in mice; format: in vivo; conditions: pentylenetetrazole 140 mg/kg s.c. 30 min later, alive after 2 hours
Description: as §1, §2

Compound	Ki [1] [nM]	effect on primary conditioned and unconditioned responses (CR and U.R.) [2]	effect on secondary conditioned response (CR2) [2]	also measured
CC(O)CN(C)c1nn2c(-c3ccccc3)nnc2c2ccccc12 (stereo not drawn) [Example 29]	28	–	–	–
CCOc1nn2c(-c3ccccc3)nnc2c2ccccc12 [Example 85, 6-ethoxy-3-phenyl-1,2,4-triazolo[3,4-a]phthalazine]	7.8	–	–	–
COc1ccc(-c2nnc3c4ccccc4c(N(C)CCCC#N)nn23)cc1 [Example 107, 4-[[3-(4-methoxyphenyl)-1,2,4-triazolo [3,4-a]phthalazin-6-yl]methylamino]butanonitrile]	0.565	–	–	–
c1ccc(-c2nn3cnnc3c3ccccc23)cc1 [Example 114, 6-phenyl-1,2,4-triazolo[3,4-a]phthalazine]	–	without influencing the primary conditioned and the unconditioned responses (CR and U.R.)	effective in inhibiting the secondary conditioned response (CR2)	–
O=C1Nc2ccc(Cl)cc2C(c2ccccc2)=NC1O (stereo not drawn) [Oxazepam, reference compound]	5.2	–	–	–
COc1ccc(-c2nnc3c4ccccc4c(OCCCCO)nn23)cc1 [Example 103, 6-(4-hydroxybutoxy)-3-(4-methoxyphenyl)-1,2,4-triazolo[3,4-a]phthalazine]	0.427	–	–	–
CCCCCOc1ccc(-c2nnc3c4ccccc4c(OCC)nn23)cc1OC [Example 93]	–	without influencing the primary conditioned and the unconditioned responses (CR and U.R.)	effective in inhibiting the secondary conditioned response (CR2)	–
CCS(=O)(=O)c1nn2c(-c3ccccc3)nnc2c2ccccc12 [Example 112, 6-(ethyl-sulfonyl)-3-phenyl-1,2,4-triazolo[3,4-a]phthalazine]	60	without influencing the primary conditioned and the unconditioned responses (CR and U.R.)	effective in inhibiting the secondary conditioned response (CR2)	–
CCOc1nn2c(-c3ccc(OC)cc3)nnc2c2ccccc12 [Example 101]	2.9	–	–	–
COc1ccc(-c2nnc3c4ccccc4c(N4CCCC4)nn23)cc1OC [Example 54]	–	without influencing the primary conditioned and the unconditioned responses (CR and U.R.)	effective in inhibiting the secondary conditioned response (CR2)	–
Fc1ccc(-c2nnc3c4ccccc4c(N4CCCC4)nn23)cc1 [Example 64]	20	–	–	–
COc1ccc(-c2nnc3c4ccccc4c(N(C)CCCO)nn23)cc1 [Example 32, N-(3-hydroxypropyl)-N-methyl-3-(4-methoxyphenyl)-1,2,4-triazolo[3,4-a]phthalazin-6-amine]	0.968	–	–	–
CCOC(=O)CCCN(C)c1nn2c(-c3ccc(OC)cc3)nnc2c2ccccc12 [Example 108]	0.524	–	–	–
Nc1ccc(-c2nnc3c4ccccc4c(N4CCCC4)nn23)cc1 [Example 75]	29	–	–	–
CCOC(=O)C1CCN(c2nn3c(-c4ccc(OC)cc4)nnc3c3ccccc23)CC1 [Example 72]	1.5	without influencing the primary conditioned and the unconditioned responses (CR and U.R.)	effective in inhibiting the secondary conditioned response (CR2)	–
CCOC(=O)CCCOc1nn2c(-c3ccc(OC)cc3)nnc2c2ccccc12 [Example 104, 4[[3-(4-methoxyphenyl)-1,2,4-triazolo[3,4-a]phthalazin-6-yl]oxy]butanoic acid ethyl ester]	0.806	–	–	–
CN(C)c1nn2c(-c3ccccc3)nnc2c2ccccc12 [Example 41]	21	–	–	–
Oc1ccc(-c2nnc3c4ccccc4c(N4CCCC4)nn23)cc1 [Example 74]	17	–	–	–

Compound	Ki [1] [nM]	effect on primary conditioned and unconditioned responses (CR and U.R.) [2]	effect on secondary conditioned response (CR2) [2]	also measured
CCN(C)c1nn2c(-c3ccccc3)nnc2c2ccccc12 [Example 46]	14	–	–	–
c1ccc(-c2nnc3c4ccccc4c(N4CCCCC4)nn23)cc1 [Example 43]	16	–	–	–
CCN(CC)CCN1C(=O)CN=C(c2ccccc2F)c2cc(Cl)ccc21 [Flurazepam, reference compound]	8.58	–	–	–
CC(=O)Nc1ccc(-c2nnc3c4ccccc4c(N4CCCC4)nn23)cc1 [Example 51]	40	–	–	–
c1ccc(-c2nnc3c4ccccc4c(N4CCOCC4)nn23)cc1 [Example 30]	18	without influencing the primary conditioned and the unconditioned responses (CR and U.R.)	effective in inhibiting the secondary conditioned response (CR2)	–
CC1CC(C)CN(c2nn3c(-c4ccccc4)nnc3c3ccccc23)C1 (stereo not drawn) [Example 73]	210	without influencing the primary conditioned and the unconditioned responses (CR and U.R.)	effective in inhibiting the secondary conditioned response (CR2)	–
c1ccc(-c2nnc3c4ccccc4c(N4CCCC4)nn23)cc1 [Example 27, 3-phenyl-6-(1-pyrrolidinyl)-1,2,4-triazolo[3,4-a]phthalazine]	16	–	–	–
COCCN(CCOC)c1nn2c(-c3ccc(OC)cc3)nnc2c2ccccc12 [Example 67]	2.7	without influencing the primary conditioned and the unconditioned responses (CR and U.R.)	effective in inhibiting the secondary conditioned response (CR2)	LD50 [3]: ≥ 300 mg/kg; Protected/treated ([4]; dose 5 mg/kg i.p.): 4/10; Protected/treated ([4]; dose 10 mg/kg i.p.): 8/10
CC1(C)CN(c2nn3c(-c4ccccc4)nnc3c3ccccc23)C1 [Example 45]	32	without influencing the primary conditioned and the unconditioned responses (CR and U.R.)	effective in inhibiting the secondary conditioned response (CR2)	–
COc1ccc(-c2nnc3c4ccccc4c(N(C)CC(C)O)nn23)cc1 (stereo not drawn) [Example 31]	17	without influencing the primary conditioned and the unconditioned responses (CR and U.R.)	effective in inhibiting the secondary conditioned response (CR2)	LD50 [3]: ≥ 300 mg/kg; Protected/treated ([4]; dose 10 mg/kg i.p.): 6/10; Protected/treated ([4]; dose 20 mg/kg i.p.): 9/10
CCNc1nn2c(-c3ccccc3)nnc2c2ccccc12 [Example 36]	48	–	–	–
COc1ccc(-c2nnc3c4ccccc4c(N4CCCC4)nn23)cc1 [Example 47]	3.9	–	–	–
COCCOc1nn2c(-c3ccc(OC)cc3)nnc2c2ccccc12 [Example 105, 6-(2-methoxyethoxy)-3-(4-methoxyphenyl)-1,2,4-triazolo[3,4-a]phthalazine]	0.9	without influencing the primary conditioned and the unconditioned responses (CR and U.R.)	effective in inhibiting the secondary conditioned response (CR2)	LD50 [3]: ~500 mg/kg; Protected/treated ([4]; dose 15 mg/kg i.p.): 3/10; Protected/treated ([4]; dose 25 mg/kg i.p.): 8/10
COc1ccc(-c2nnc3c4ccccc4c(N4CCC(O)C4)nn23)cc1 (stereo not drawn) [Example 79]	2.7	–	–	–
CNc1nn2c(-c3ccccc3)nnc2c2ccccc12 [Example 35]	46	–	–	–
CCN(CC)c1nn2c(-c3ccccc3)nnc2c2ccccc12 [Example 42]	57	–	–	–
CN1CCN(c2nn3c(-c4ccccc4)nnc3c3ccccc23)CC1 [Example 44]	57	–	–	–

— patent publication US4788186A, “6-substituted-s-triazolo[3,4-a]phthalazine derivatives” (Gruppo Lepetit S.p.A., priority 1982, dated 1988)
